Data reported in ChEMBL document CHEMBL4000234, “Synthesis and antiviral evaluation of novel heteroarylpyrimidines analogs as HBV capsid effectors” (Bioorg Med Chem Lett, 2017).

Tests used:
Vero = test: (§1) Cytotoxicity against African green monkey Vero cells assessed as growth inhibition by CellTiter 96 non-radioactive cell proliferation colorimetric assay; format: cell-based; conditions: chlorocebus sabaeus, vero
HepG2 = test: (§2) Cytotoxicity against human HepG2 cells assessed as growth inhibition by CellTiter 96 non-radioactive cell proliferation colorimetric assay; format: cell-based; conditions: hepg2
CCRF-CEM = test: (§3) Cytotoxicity against human CEM cells assessed as growth inhibition by CellTiter 96 non-radioactive cell proliferation colorimetric assay; format: cell-based; conditions: ccrf-cem
PBMC = test: (§4) Cytotoxicity against human PBMC assessed as growth inhibition by CellTiter 96 non-radioactive cell proliferation colorimetric assay; format: cell-based
Hepatitis B virus = test: Antiviral activity against HBV infected in human HepAD38 cells assessed as inhibition of DNA replication after 5 days by RT-PCR method; format: functional, cell-based; conditions: HePAD38, 120 h
[1] = as §1; format: cell-based; conditions: chlorocebus sabaeus, Vero cells
[2] = as §2; format: cell-based; conditions: HepG2 cells
[3] = as §3; format: cell-based, CCRF-CEM; conditions: CEM cells (CCRF-CEM)
[4] = as §4; format: cell-based

Compound | EC50 (Hepatitis B virus) | CC50 (Vero) | CC50 (HepG2) | CC50 (CCRF-CEM) | CC50 (PBMC) | CC50 [1] | CC50 [2] | CC50 [3] | CC50 [4]
COC(=O)C1=C(Cn2cc[n+](C)c2)NC(c2ccccn2)=NC1c1ccc(F)cc1Cl (stereo unspecified) | > 10 µM | > 100 µM | > 100 µM | 23 µM | 44 µM |  |  |  | 
CC1=C(C(=O)NS(=O)(=O)N(C)C)C(c2ccc(F)cc2Cl)N=C(c2ccccn2)N1 (stereo unspecified) | > 10 µM | ≥ 100 µM | > 100 µM | > 100 µM | > 100 µM |  |  |  | 
COC(=O)C1=C(C)NC(c2ccccn2)=NC1Cc1ccccc1 (stereo unspecified) | > 10 µM | > 100 µM | > 100 µM | 61 µM | 52 µM |  |  |  | 
CC1=C(C(=O)OCC(F)(F)F)C(c2ccc(F)cc2Cl)N=C(c2ccccn2)N1 (stereo unspecified) | > 10 µM | 65 µM | > 100 µM | 4 µM | > 100 µM |  |  |  | 
CCCC[n+]1ccn(CC2=C(C(=O)OC)C(c3ccc(F)cc3Cl)N=C(c3ccccn3)N2)c1 (stereo unspecified) | > 10 µM | > 100 µM | 14 µM | 3 µM | 20 µM |  |  |  | 
COC(=O)c1c(Cc2ccccc2)nc(-c2ccccn2)nc1CN1CCN(C)CC1 | > 10 µM | > 100 µM | > 100 µM | 86 µM | > 100 µM |  |  |  | 
CC1=C(Cl)C(c2ccc(F)cc2Cl)N=C(c2ccccn2)N1 (stereo unspecified) | > 10 µM | 13 µM | 98 µM | 44 µM | > 100 µM |  |  |  | 
COCCOCc1nc(-c2ccccn2)nc(Cc2ccccc2)c1C(=O)OC | > 10 µM | 87 µM | ≥ 100 µM | 55 µM | 99 µM |  |  |  | 
COC(=O)c1c(Cc2ccc(F)cc2Cl)nc(-c2ccccn2)nc1CN1CCOCC1 | > 10 µM | 71 µM | 69 µM | 11 µM | 34 µM |  |  |  | 
CC1(C)CC(=O)c2c(Cc3ccc(F)cc3Cl)nc(-c3ccncc3)nc2C1 | > 10 µM | 10 µM | ≥ 100 µM | ≥ 100 µM | > 100 µM |  |  |  | 
CCOP(=O)(CC1=C(C(=O)OC)C(c2ccc(F)cc2Cl)N=C(c2ccccn2)N1)OCC (stereo unspecified) | > 10 µM | 43 µM | > 100 µM | 15 µM | 65 µM |  |  |  | 
COC(=O)C1=C(CSc2ccccc2)NC(c2ccccn2)=NC1Cc1ccccc1 (stereo unspecified) | > 10 µM | > 100 µM | 96 µM | 5 µM | > 100 µM |  |  |  | 
COC(=O)C1=C(CS(=O)(=O)Cc2ccc(C)cc2)NC(c2ccccn2)=NC1c1ccc(F)cc1Cl (stereo unspecified) | > 10 µM | ≥ 100 µM | > 100 µM | 47 µM | 67 µM |  |  |  | 
CC(=O)NC1=C(CN2CCOCC2)NC(c2ccccn2)=NC1c1ccc(F)cc1Cl (stereo unspecified) | > 10 µM | 18 µM | > 100 µM | 69 µM | 28 µM |  |  |  | 
CC1(C)CC(=O)c2c(Cc3ccc(F)cc3Cl)nc(-c3ccccn3)nc2C1 | > 10 µM | 29 µM | 42 µM | 9 µM | 69 µM |  |  |  | 
CC1(C)CC(=O)c2c(Cc3ccccc3)nc(-c3ccccn3)nc2C1 | > 10 µM | 53 µM | 47 µM | 21 µM | 43 µM |  |  |  | 
COC(=O)c1c(Cc2ccccc2)nc(-c2ccccn2)nc1CN1CCOCC1 | > 10 µM | 59 µM | > 100 µM | 2 µM | 81 µM |  |  |  | 
CC1(C)CC(=O)C2=C(C1)NC(c1cccnc1)=NC2c1ccc(F)cc1Cl (racemic) | > 10 µM | > 100 µM | > 100 µM | > 100 µM | > 100 µM |  |  |  | 
Nc1ccn([C@@H]2CS[C@H](CO)O2)c(=O)n1 [LAMIVUDINE] | 0.04 µM |  |  |  |  | > 100 µM | 10 to 100 µM | > 100 µM | > 100 µM

Further lines, with some results ahead:

EC50 (Hepatitis B virus) | Compound | CC50 (Vero) | CC50 (HepG2) | CC50 (CCRF-CEM) | CC50 (PBMC) | CC50 [1] | CC50 [2] | CC50 [3] | CC50 [4]
> 10 µM | COC(=O)c1c(CSc2ccccc2)nc(-c2ccccn2)nc1Cc1ccccc1 | 12 µM | > 100 µM | 9 µM | 65 µM |  |  |  | 
> 10 µM | CC1=C(C(=O)SC(C)C)C(c2ccc(F)cc2Cl)N=C(c2ccccn2)N1 (stereo unspecified) | 40 µM | > 100 µM | 13 µM | 31 µM |  |  |  | 
> 10 µM | COC(=O)c1c(C)nc(-c2ccccn2)nc1Cc1ccccc1 | 61 µM | 41 µM | 4 µM | 67 µM |  |  |  | 
> 10 µM | COC(=O)C1=C(CN2CCN(C)CC2)NC(c2ccccn2)=NC1Cc1ccccc1 (stereo unspecified) | 76 µM | 14 µM | 17 µM | > 100 µM |  |  |  | 
> 10 µM | CC(=O)NC1=C(C)NC(c2ccccn2)=NC1c1ccc(F)cc1Cl (stereo unspecified) | > 100 µM | 80 µM | > 100 µM | > 100 µM |  |  |  | 
> 10 µM | CCS(=O)(=O)CC1=C(C(=O)OC)C(c2ccc(F)cc2Cl)N=C(c2ccccn2)N1 (stereo unspecified) | > 100 µM | > 100 µM | 39 µM | > 100 µM |  |  |  | 
> 10 µM | CC1(C)CC(=O)c2c(Cc3ccc(F)cc3Cl)nc(-c3cccnc3)nc2C1 | ≥ 100 µM | > 100 µM | 86 µM | > 100 µM |  |  |  | 
4.1 µM | CC1=C(I)C(c2ccc(F)cc2Cl)N=C(c2ccccn2)N1 (stereo unspecified) | 29 µM | > 100 µM | 74 µM | 80 µM |  |  |  | 
4 µM | Fc1ccc(C2N=C(c3ccccn3)NC(CN3CCOCC3)=C2I)c(Cl)c1 (stereo unspecified) | 45 µM | > 100 µM | 11 µM | > 100 µM |  |  |  | 
5.7 µM | Fc1ccc(C2N=C(c3nccs3)NC(CN3CCOCC3)=C2I)c(Br)c1 (stereo unspecified) | > 100 µM | > 100 µM | 33 µM | 75 µM |  |  |  | 
5.3 µM | COC(=O)C1=C(CN=[N+]=[N-])NC(c2ccccn2)=NC1c1ccc(F)cc1Cl (stereo unspecified) | 56 µM | > 100 µM | > 100 µM | > 100 µM |  |  |  | 
7.1 µM | CC1=C(I)C(c2ccc(F)cc2Br)N=C(c2nccs2)N1 (stereo unspecified) | > 100 µM | > 100 µM | 33 µM | 80 µM |  |  |  | 
5.2 µM | CC1=C(Br)C(c2ccc(F)cc2Cl)N=C(c2ccccn2)N1 (stereo unspecified) | 16 µM | 79 µM | 23 µM | > 100 µM |  |  |  | 
0.3 µM | CCOC(=O)C1=C(CN2CCOCC2)NC(c2nccs2)=NC1c1ccc(F)cc1Br (racemic) |  |  |  |  |  |  |  | 
0.45 to 0.5 µM | COC(=O)C1=C(CN2CCOCC2)NC(c2ccccn2)=NC1c1ccc(F)cc1Cl (racemic) | > 100 µM | > 100 µM | > 100 µM | > 100 µM |  |  |  | 
